For this assay, the target named is T1, VSG221 (variant surface glycoprotein 221, MITat 1.2) (Trypanosoma brucei, UniProt P26332).
T1 construct: soluble form VSG (sVSG) purified from parental bloodstream forms, N-glycosylated (Asn263, Asn428)
Put plainly: SPR (Biacore T200) on immobilized VSG221, […]; supported by HHA-FITC and CV-N-FITC competition on live parasites. Type of assay: binding. A general note: In SPR one partner is held on a chip, and binding of the other changes the refractive index at the surface.

Consider 1 compound from PMC5035034, “Carbohydrate-Binding Non-Peptidic Pradimicins for the Treatment of Acute Sleeping Sickness in Murine Models” (PLoS Pathogens, 2016).

In the case of `CN[C@@H]1[C@H](O[C@@H]2O[C@H](CO)[C@@H](O)[C@H](OS(=O)(=O)O)[C@H]2O)[C@@H](O)[C@H](O[C@H]2c3cc(C)c(C(=O)N[C@H](C)C(=O)O)c(O)c3-c3c(cc4c(c3O)C(=O)c3cc(OC)cc(O)c3C4=O)[C@@H]2O)O[C@@H]1C` [PRM-S, pradimicin S], the “SPR (Biacore T200) on immobilized VSG221, 1.56 to 50 uM; supported by HHA-FITC a” value is on record as “A significant concentration-dependent binding to the parental Tb BSF VSG221-bound sensorchip was observed”.
